# Results reported in ChEMBL document CHEMBL2390907, “Juglone, isolated from Juglans mandshurica Maxim, induces apoptosis via down-regulation of AR expression in human prostate cancer LNCaP cells” (Bioorg Med Chem Lett, 2013).
# Active and inactive are the calls of the source. The rule behind the calls is not given here.
# Assays:
# LNCaP [1] = assay: Induction of apoptosis in human LNCAP cells assessed as increase of annexin V-FITC/PI staining positive cells after 24 hrs by flow cytometry; type: functional, cell-based
# LNCaP [2] = assay: Induction of apoptosis in human LNCAP cells assessed as decrease of prostate-specific antigen protein expression at 5 uM after 24 hrs by Western blot analysis; type: functional, cell-based
# LNCaP [3] = assay: Induction of apoptosis in human LNCAP cells assessed as decrease of androgen receptor protein expression at 5 uM after 24 hrs by Western blot analysis; type: functional, cell-based
# LNCaP [4] = assay: Induction of apoptosis in human LNCAP cells assessed as decrease of androgen receptor protein expression after 24 hrs by Western blot analysis; type: functional, cell-based
# LNCaP [5] = assay: Induction of apoptosis in human LNCAP cells assessed as nuclear condensation at 5 to 15 uM after 24 hrs using Hoechst 33342 staining by fluorescence microscopic analysis; type: functional, cell-based
# LNCaP [6] = assay: Induction of apoptosis in human LNCAP cells assessed as membrane blebbing at 5 to 15 uM after 24 hrs using Hoechst 33342 staining by fluorescence microscopic analysis; type: functional, cell-based
# LNCaP [7] = assay: Antiproliferative activity against human LNCAP cells after 24 hrs by MTT assay; type: functional, cell-based
# LNCaP [8] = assay: Induction of apoptosis in human LNCAP cells assessed as decrease of mitochondria membrane potential after 24 hrs using rhodamine 123 dye by flow cytometry; type: functional, cell-based
# LNCaP [9] = assay: Induction of apoptosis in human LNCAP cells assessed as activation of caspase-3 and 9 at 15 uM after 24 hrs by Western blot analysis relative to control; type: functional
# LNCaP [10] = assay: Induction of apoptosis in human LNCAP cells assessed as cleavage of precursor of caspase-3 and 9 after 24 hrs by Western blot analysis; type: functional, cell-based
# LNCaP [11] = assay: Induction of apoptosis in human LNCAP cells assessed as decrease of prostate-specific antigen protein expression after 24 hrs by Western blot analysis; type: functional, cell-based
# LNCaP [12] = assay: Induction of apoptosis in human LNCAP cells assessed as decrease of DHT-induced prostate-specific antigen mRNA expression at 15 uM treated 2 hrs before DHT challenge measured after 24 hrs by RT-PCR analysis; type: functional, cell-based
# LNCaP [13] = assay: Induction of apoptosis in human LNCAP cells assessed as decrease of DHT-induced androgen receptor mRNA expression at 15 uM treated 2 hrs before DHT challenge measured after 24 hrs by RT-PCR analysis; type: functional, cell-based
# LNCaP [14] = assay: Induction of apoptosis in human LNCAP cells assessed as cell shrinkage at 5 to 15 uM after 24 hrs using Hoechst 33342 staining by fluorescence microscopic analysis; type: functional, cell-based
compound,measurement,setting,value
O=C1C=CC(=O)c2c(O)cccc21 [JUGLONE],Activity,LNCaP [1],Dose-dependent effect
same,Activity,LNCaP [2],inactive
same,Activity,LNCaP [3],inactive
same,Activity,LNCaP [4],Dose-dependent effect
same,Activity,LNCaP [5],Active
same,Activity,LNCaP [6],Active
same,Activity,LNCaP [7],Dose-dependent effect
same,IC50,LNCaP [7],13.8 µM
same,Activity,LNCaP [8],Dose-dependent effect
same,fold change (FC),LNCaP [9],>2.5
same,Activity,LNCaP [10],Dose-dependent effect
same,Activity,LNCaP [11],Dose-dependent effect
same,Activity,LNCaP [12],Active
same,Activity,LNCaP [13],Active
same,Activity,LNCaP [14],Active
